Source: patent US10722496B2, “2-iminobiotin for use in the treatment of brain cell injury” (Neurophyxia B.V., priority 2015, dated 2020)
Where “and” joins values, the source holds several entries; their conditions need not be identical. Equal values may be shown once.

How the values were obtained:
IMR-32 cells = test: Hydrogen peroxide in culture medium; assay type: cell-based, human; conditions: 30 ng/ml 2-IB, data not shown
[1] = test system: cell stress associated proteins; test: Cell stress proteome profiler array; assay type: cell-based, human; conditions: for ADAMTS1 mean densitometric intensity / Bcl-2 mean densitometric intensity / CA IX mean densitometric intensity / COX-2 mean densitometric intensity / Cited 2 mean densitometric intensity / Cytochrome C mean densitometric intensity / Dkk-4 mean densitometric intensity / FABP-1 mean densitometric intensity / HIF1a mean densitometric intensity / HIF2a mean densitometric intensity / HSP60 mean densitometric intensity / HSP70 mean densitometric intensity / IDO mean densitometric intensity / NFkB1 mean densitometric intensity / PON1 mean densitometric intensity / PON2 mean densitometric intensity / PON3 mean densitometric intensity / PP53 mean densitometric intensity / SIRT2 mean densitometric intensity / SOD2 mean densitometric intensity / Thioredoxin-1 mean densitometric intensity / p21/CIP1 mean densitometric intensity / p27 mean densitometric intensity / pHSP-27 mean densitometric intensity / pJNK mean densitometric intensity / pp38a mean densitometric intensity: 2-IB (30 ng/ml)
Procedure: (§1) In vitro hypoxia was induced in the cell cultures by using our recently described system with minor modifications (Huang et al., 2013b; Weber et al., 2015; Zitta et al., 2010). Enzyme stock solutions (100×) of catalase and glucose oxidase (both from Sigma-Aldrich) were prepared in cell culture medium (DMEM/F12, 1% FCS; final concentration: 120 U/ml and 2 U/ml respectively; Sigma-Aldrich) leading to a decrease of partial pressure of oxygen (pO2) below 10 mmHg within 5 minutes. Hypoxic conditions were confirmed by using a tissue oxygen pressure monitor (LICOX® CMP Oxygen Catheter; Integra, Plainsboro, USA). After 7 hours of hypoxia, the cells were washed twice with PBS (PAA) and fresh normoxic medium supplemented with solvent (citrate buffer 1%) or 2-IB (10, 30, 50, 100 and 300 ng/mL) was added to the cells. Investigations of cell damage, metabolic activity, ROS, hydrogen peroxide, nitrite/nitrate production, erkl/2, akt and stat5 phosphorylation as well as cell stress protein expression were performed with cell culture media or cell protein (FIG. 1).
Proteome profiling was performed using commercially available cell stress proteome profiler arrays (R&D Systems, Minneapolis, USA) and the manufacturer's protocol provided with the assay kit. Equal amounts (50 μg) of protein from each experiment (N=4) were pooled and applied to the respective array membrane. Expression levels of 26 cell stress associated proteins were evaluated by densitometric analyses of the arrays using the ImageJ 1.410 software (ImageJ, NIH, USA).

erkl/2 = test: Western blotting, erkl/2 phosphorylation; assay type: cell-based, human; conditions: 30 ng/ml 2-IB
Procedure: as §1, with “Investigations of cell damage, metabolic activity, ROS, hydrogen peroxide, nitrite/nitrate production, erkl/2, akt and stat5 phosphorylation as well as cell stress protein expression were performed with cell culture media or cell protein (FIG. 1).” left out
(§2) Protein extraction was performed using RIPA buffer containing 150 mM sodium chloride, 1% NP-40, 1% sodium deoxycholate, 0.1% sodium dodecyl sulfate (SDS) and 50 mM Tris-HCl buffer (pH 7.6; all from Sigma-Aldrich) or alternatively M-PER buffer (Mammalian Protein Extraction Reagent; Pierce, Ill., USA). Protein concentrations were determined with Roti®-Quant assays (Carl Roth) and samples were stored at −20° C. until use. […] Images were taken and densitometrically analyzed with the software ImageJ (v1.41o, NIH).

stat5 = test: Western blotting, stat5 phosphorylation; assay type: cell-based, human; conditions: 30 ng/ml 2-IB
Procedure: as §1, with “Investigations of cell damage, metabolic activity, ROS, hydrogen peroxide, nitrite/nitrate production, erkl/2, akt and stat5 phosphorylation as well as cell stress protein expression were performed with cell culture media or cell protein (FIG. 1).” left out
as §2

[2] = Dose prediction simulations from covariate PK models; set-up: species or system human; Sim. AUCinf when dosing based on Crea0 from Table 6 / Sim. AUCinf when dosing based on eGFR: unit not given here
Procedure: Models were generated in order to determine the impact of dose adjustments and variability of AUC.
[…] and can be easily derived. (D=dose; CL=clearance)
An exploratory covariate analysis was performed looking at body weight, age, eGFR, SeCre, and Core temperature. The model used was as follows:
Dose correction for use at lower temperatures can be determined using the following equation: […]

[3] = 30 ng/ml 2-IB after the hypoxic insult, of 26 proteins

For `N=C1N[C@H]2[C@H](CS[C@H]2CCCCC(=O)O)N1` [2-IB, 2-iminobiotin], the “hypoxia-induced release of hydrogen peroxide” value (IMR-32 cells) was “did not attenuate the hypoxia-induced release of hydrogen peroxide”, the “cell stress associated proteins down regulated after hypoxia” value [1, 3] was 3/26 and the “cell stress associated proteins unchanged after hypoxia” value [1, 3] was 4/26. The “cell stress associated proteins up regulated after hypoxia” value [1, 3] was 19/26, the “investigated stress proteins up regulated” value ([1]; 30 ng/ml 2-IB for 4 hours post hypoxia) was 73% and the “ADAMTS1 mean densitometric intensity” value ([1]; Hypoxia) was 9.23. For the same compound, the “Bcl-2 mean densitometric intensity” value ([1]; Hypoxia) was 42.62, the “CA IX mean densitometric intensity” value ([1]; Hypoxia) was 23.02 and the “COX-2 mean densitometric intensity” value ([1]; Hypoxia) was 13.79. For the same compound, the “Cited 2 mean densitometric intensity” value ([1]; Hypoxia) was 67.91, the “Cytochrome C mean densitometric intensity” value ([1]; Hypoxia) was 108.04 and the “Dkk-4 mean densitometric intensity” value ([1]; Hypoxia) was 3.47. The “FABP-1 mean densitometric intensity” value ([1]; Hypoxia) was 9.02, the “HIF1a mean densitometric intensity” value ([1]; Hypoxia) was 47.93 and the “HIF2a mean densitometric intensity” value ([1]; Hypoxia) was 0.00. For the same compound, the “HSP60 mean densitometric intensity” value ([1]; Hypoxia) was 150.57, the “HSP70 mean densitometric intensity” value ([1]; Hypoxia) was 170.82 and the “IDO mean densitometric intensity” value ([1]; Hypoxia) was 0.00. The “NFkB1 mean densitometric intensity” value ([1]; Hypoxia) was 8.63, the “PON1 mean densitometric intensity” value ([1]; Hypoxia) was 0.00 and the “PON2 mean densitometric intensity” value ([1]; Hypoxia) was 20.16. The “PON3 mean densitometric intensity” value ([1]; Hypoxia) was 0.00, the “PP53 mean densitometric intensity” value ([1]; Hypoxia) was 11.92 and the “SIRT2 mean densitometric intensity” value ([1]; Hypoxia) was 171.53. For the same compound, the “SOD2 mean densitometric intensity” value ([1]; Hypoxia) was 203.11, the “Thioredoxin-1 mean densitometric intensity” value ([1]; Hypoxia) was 147.57 and the “p21/CIP1 mean densitometric intensity” value ([1]; Hypoxia) was 51.41. The “p27 mean densitometric intensity” value ([1]; Hypoxia) was 4.67, the “pHSP-27 mean densitometric intensity” value ([1]; Hypoxia) was 1.65 and the “pJNK mean densitometric intensity” value ([1]; Hypoxia) was 48.63. The “pp38a mean densitometric intensity” value ([1]; Hypoxia) was 3.52, the “ADAMTS1 mean densitometric intensity” value ([1]; Normoxia) was 10.32 and the “Bcl-2 mean densitometric intensity” value ([1]; Normoxia) was 32.27. The “CA IX mean densitometric intensity” value ([1]; Normoxia) was 0.00, the “COX-2 mean densitometric intensity” value ([1]; Normoxia) was 8.91 and the “Cited 2 mean densitometric intensity” value ([1]; Normoxia) was 44.07. For the same compound, the “Cytochrome C mean densitometric intensity” value ([1]; Normoxia) was 84.87, the “Dkk-4 mean densitometric intensity” value ([1]; Normoxia) was 2.81 and the “FABP-1 mean densitometric intensity” value ([1]; Normoxia) was 6.67. For the same compound, the “HIF1a mean densitometric intensity” value ([1]; Normoxia) was 62.15, the “HIF2a mean densitometric intensity” value ([1]; Normoxia) was 0.00 and the “HSP60 mean densitometric intensity” value ([1]; Normoxia) was 121.73. For the same compound, the “HSP70 mean densitometric intensity” value ([1]; Normoxia) was 139.78, the “IDO mean densitometric intensity” value ([1]; Normoxia) was 0.00 and the “NFkB1 mean densitometric intensity” value ([1]; Normoxia) was 6.09. The “PON1 mean densitometric intensity” value ([1]; Normoxia) was 0.00, the “PON2 mean densitometric intensity” value ([1]; Normoxia) was 8.83 and the “PON3 mean densitometric intensity” value ([1]; Normoxia) was 0.00. For the same compound, the “PP53 mean densitometric intensity” value ([1]; Normoxia) was 8.64, the “SIRT2 mean densitometric intensity” value ([1]; Normoxia) was 148.80 and the “SOD2 mean densitometric intensity” value ([1]; Normoxia) was 181.53. For the same compound, the “Thioredoxin-1 mean densitometric intensity” value ([1]; Normoxia) was 126.34, the “p21/CIP1 mean densitometric intensity” value ([1]; Normoxia) was 43.13 and the “p27 mean densitometric intensity” value ([1]; Normoxia) was 4.51. The “pHSP-27 mean densitometric intensity” value ([1]; Normoxia) was 0.79, the “pJNK mean densitometric intensity” value ([1]; Normoxia) was 39.24 and the “pp38a mean densitometric intensity” value ([1]; Normoxia) was 4.72. For the same compound, the “phosphorylation of erkl/2” value (erkl/2) was “did not influence”, the “phosphorylation of stat5” value (stat5) was “did not influence” and the “Sim. AUCinf when dosing based on 4.8 mg for all” value (shortened to “Sim. AUCinf … for all”) ([2]; Table 8, covariate model with Crea0, individual patient (ID 1-8)) was 220 and 292 and 765 and 847 and 642 and 993 and 427 and 266. For the same compound, the “Sim. AUCinf when dosing based on Crea0 from Table 6” value ([2]; Table 8, individual patient (ID 1-8)) was 676 and 494 and 588 and 781 and 692 and 1070 and 722 and 327, the “Sim. AUCinf … for all” value ([2]; Table 10, covariate model with eGFR, individual patient (ID 1-8)) was 306 and 302 and 814 and 873 and 484 and 856 and 472 and 269 and the “Sim. AUCinf … for all” value ([2]; Table 10, Max of 8 patients) was 873. For the same compound, the “Sim. AUCinf when dosing based on eGFR” value ([2]; Table 10, Max of 8 patients) was 922, the “Sim. AUCinf … for all” value ([2]; Table 10, Mean of 8 patients) was 547 and the “Sim. AUCinf when dosing based on eGFR” value ([2]; Table 10, Mean of 8 patients) was 679. The “Sim. AUCinf … for all” value ([2]; Table 10, Median of 8 patients) was 478, the “Sim. AUCinf when dosing based on eGFR” value ([2]; Table 10, Median of 8 patients) was 713 and the “Sim. AUCinf … for all” value ([2]; Table 10, Min of 8 patients) was 269. The “Sim. AUCinf when dosing based on eGFR” value ([2]; Table 10, Min of 8 patients) was 415, the “Sim. AUCinf when dosing based on eGFR” value ([2]; Table 10, individual patient (ID 1-8)) was 802 and 465 and 626 and 806 and 596 and 922 and 800 and 415 and the “CL at 33° relative to the CL at 36°” value ([2]; given the same Crea0, temperature correction equation) was 37%.
